Positions of bridges follow the written chain, without caps; N, C: chain ends. Non-standard residues stand in square brackets, D forms with d. Residues, ends and D or L forms follow the SMILES beside them. *: point of attachment. hPhe(3-Cl-4-CF3) = N[C@@H](CCc1ccc(C(F)(F)F)c(Cl)c1)C(=O)O; hPhe(3-F,4-CF3) = N[C@@H](CCc1ccc(C(F)(F)F)c(F)c1)C(=O)O; NMePhe(4-CF3) = CN[C@@H](Cc1ccc(C(F)(F)F)cc1)C(=O)O; NMePhe(4-Me) = CN[C@@H](Cc1ccc(C)cc1)C(=O)O; NMeGly(cPent) = CN[C@H](C(=O)O)C1CCCC1; NMeCha = CN[C@@H](CC1CCCCC1)C(=O)O; NMeChg = CN[C@H](C(=O)O)C1CCCCC1; Piperidide(4-Me) = CC1CCN(*)CC1; NMeD = CN[C@@H](CC(=O)O)C(=O)O; NMeL = CN[C@@H](CC(C)C)C(=O)O; Oxazolidin(3-yl) = C1CN(*)CO1; d(β3hP) = O=C(O)C[C@H]1CCCN1; NMeV = CN[C@H](C(=O)O)C(C)C; d(β3hA) = C[C@@H](N)CC(=O)O; NMeA = CN[C@@H](C)C(=O)O; Piperidide = C1CCN(*)CC1; Ac5c = NC1(C(=O)O)CCCC1; Aze = O=C(O)[C@@H]1CCN1; Ac4c = NC1(C(=O)O)CCC1; X14 = CC1(C)CCN(*)C1; Sar = CNCC(=O)O
Tests used:
[1] = system: Human pancreatic cancer cell line AsPC-1; test: Measurement of AsPC-1 cell growth inhibition (AsPC-1 CGI); format: cell-based; conditions: 96 h
Method in brief: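 AsPC-1 cells in 15% FBS RPMI-1640 were exposed to test compound for 96 hours at 37° C, with CellTiter-Glo as endpoint.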

[2] = target: T1, Kras and SOS1 (biotin-tagged human Kras loaded with GDP, His-tagged human SOS1) (Homo sapiens, UniProt P01116, G12D); test: Protein-protein interaction inhibition between Kras and SOS1 (KrasGl2D-SOS PPI) using AlphaScreen; format: binding; conditions: AlphaScreen; biotin-tagged human Kras loaded with GDP, His-tagged human SOS1; read-out: KRAS G12D-SOS PPI IC50
T1 construct: made in house; host or cells: E. coli (stated for Kras only)
T1 sequence (P01116 1-188 isoform P01116-2 G12D): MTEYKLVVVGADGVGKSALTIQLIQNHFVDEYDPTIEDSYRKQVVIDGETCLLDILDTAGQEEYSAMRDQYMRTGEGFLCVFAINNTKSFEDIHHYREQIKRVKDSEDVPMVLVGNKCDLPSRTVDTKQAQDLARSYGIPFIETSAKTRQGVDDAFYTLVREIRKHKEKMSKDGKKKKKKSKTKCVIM
Method in brief: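 Binding between SOS1 and Kras is detected as bead-proximity luminescence: illuminate Ni-conjugated donors (680 nm), collect 520-620 nm emission from streptavidin-conjugated acceptors; Kras carries biotin and GDP loaded after purification, SOS1 carries a His tag.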

SMILES | IC50 [1] [nM] | IC50 [2] [nM]
CC[C@H](C)[C@@H]1NC(=O)[C@H](CC(C)C)N(C)C(=O)C[C@@H](C(=O)N2CCCCC2)N(C)C(=O)[C@H](C2CCCCC2)N(C)C(=O)C2(CCCC2)NC(=O)[C@@H]2CCCN2C(=O)[C@H](CCc2ccc(C(F)(F)F)c(Cl)c2)NC(=O)CN(C)C(=O)[C@H](CC2CCCCC2)N(C)C(=O)CN(C)C(=O)CNC1=O [Compound 1315] ([NMeL]IG[Sar][NMeCha][Sar][hPhe(3-Cl-4-CF3)]P[Ac5c][NMeChg][NMeD]-Piperidide; lactam N-11) | 100 to 500 | 1
CC[C@H](C)[C@@H]1NC(=O)[C@H](CC(C)C)N(C)C(=O)C[C@@H](C(=O)N2CCC(C)(C)C2)N(C)C(=O)[C@H](C(C)C)N(C)C(=O)C2(CCCC2)NC(=O)[C@@H]2CCCN2C(=O)[C@H](CCc2ccc(C(F)(F)F)c(Cl)c2)NC(=O)CN(C)C(=O)[C@H](CC2CCCCC2)N(C)C(=O)[C@@H]2CCN2C(=O)[C@H](C)N(C)C1=O [Compound 1323] ([NMeL]I[NMeA][Aze][NMeCha][Sar][hPhe(3-Cl-4-CF3)]P[Ac5c][NMeV][NMeD]-X14; lactam N-11) | 100 to 500 | 4.3
CC[C@H](C)[C@@H]1NC(=O)[C@H](CC(C)C)N(C)C(=O)C[C@@H](C(=O)N2CCOC2)N(C)C(=O)[C@H](C(C)C)N(C)C(=O)C2(CCCC2)NC(=O)[C@@H]2CCCN2C(=O)[C@H](CCc2ccc(C(F)(F)F)c(Cl)c2)NC(=O)CN(C)C(=O)[C@H](CC2CCCCC2)N(C)C(=O)[C@@H]2CCN2C(=O)[C@H](C)N(C)C1=O [Compound 1329] ([NMeL]I[NMeA][Aze][NMeCha][Sar][hPhe(3-Cl-4-CF3)]P[Ac5c][NMeV][NMeD]-{Oxazolidin(3-yl)}; lactam N-11) | 100 to 500 | 1.7
CC[C@H](C)[C@@H]1NC(=O)[C@H](CC(C)C)N(C)C(=O)C[C@H]2CCCN2C(=O)[C@H](C(C)C)N(C)C(=O)C2(CCCC2)NC(=O)[C@@H]2CCCN2C(=O)[C@H](CCc2ccc(C(F)(F)F)c(Cl)c2)NC(=O)CN(C)C(=O)[C@H](CC2CCCCC2)N(C)C(=O)[C@@H]2CCN2C(=O)[C@H](C)N(C)C1=O [Compound 1332] (cyclo([Ac5c][NMeV][d(β3hP)][NMeL]I[NMeA][Aze][NMeCha][Sar][hPhe(3-Cl-4-CF3)]P)) | 100 to 500 | 23
CC[C@H](C)[C@@H]1NC(=O)[C@H](CC(C)C)N(C)C(=O)C[C@@H](C(=O)N2CCC(C)CC2)N(C)C(=O)[C@H](C2CCCCC2)N(C)C(=O)C2(CCCC2)NC(=O)[C@@H]2CCCN2C(=O)[C@H](CCc2ccc(C(F)(F)F)c(Cl)c2)NC(=O)CN(C)C(=O)[C@H](CC2CCCCC2)N(C)C(=O)CN(C)C(=O)CN(C)C1=O [Compound 1347] ([NMeL]I[Sar][Sar][NMeCha][Sar][hPhe(3-Cl-4-CF3)]P[Ac5c][NMeChg][NMeD]-{Piperidide(4-Me)}; lactam N-11) | 100 to 500 | 1.3
CC[C@H](C)[C@@H]1NC(=O)[C@H](CC(C)C)N(C)C(=O)C[C@@H](C(=O)N2CCCCC2)N(C)C(=O)[C@H](C(C)C)N(C)C(=O)C2(CCCC2)NC(=O)[C@@H]2CCCN2C(=O)[C@H](CCc2ccc(C(F)(F)F)c(F)c2)NC(=O)CN(C)C(=O)[C@H](CC2CCCCC2)N(C)C(=O)CN(C)C(=O)CN(C)C1=O [Compound 1454] ([NMeL]I[Sar][Sar][NMeCha][Sar][hPhe(3-F,4-CF3)]P[Ac5c][NMeV][NMeD]-Piperidide; lactam N-11) | 100 to 500 | 11
CC[C@H](C)[C@@H]1NC(=O)[C@H](CC(C)C)N(C)C(=O)C[C@@H](C)NC(=O)[C@H](C(C)C)N(C)C(=O)C2(CCCC2)NC(=O)[C@@H]2CCCN2C(=O)[C@H](CCc2ccc(C(F)(F)F)c(Cl)c2)NC(=O)CN(C)C(=O)[C@H](CC2CCCCC2)N(C)C(=O)CN(C)C(=O)CN(C)C1=O [Compound 1457] (cyclo([Ac5c][NMeV][d(β3hA)][NMeL]I[Sar][Sar][NMeCha][Sar][hPhe(3-Cl-4-CF3)]P)) | 100 to 500 | 11
CC(C)C[C@H]1C(=O)N[C@@H](C(C)C)C(=O)N(C)CC(=O)N(C)CC(=O)N(C)[C@@H](CC2CCCCC2)C(=O)N(C)CC(=O)N[C@@H](CCc2ccc(C(F)(F)F)c(F)c2)C(=O)N2CCC[C@H]2C(=O)NC2(CCCC2)C(=O)N(C)[C@@H](CC(C)C)C(=O)N(C)[C@H](C(=O)N2CCCCC2)CC(=O)N1C [Compound 1458] ([NMeL]V[Sar][Sar][NMeCha][Sar][hPhe(3-F,4-CF3)]P[Ac5c][NMeL][NMeD]-Piperidide; lactam N-11) | 100 to 500 | 7.2
CC[C@H](C)[C@@H]1NC(=O)[C@H](C)N(C)C(=O)C[C@@H](C)NC(=O)[C@H](C2CCCC2)N(C)C(=O)C2(CCCC2)NC(=O)[C@@H]2CCCN2C(=O)[C@H](CCc2ccc(C(F)(F)F)c(Cl)c2)NC(=O)CN(C)C(=O)[C@H](Cc2ccc(C)cc2)N(C)C(=O)[C@@H]2CCN2C(=O)CN(C)C1=O [Compound 1462] (cyclo([Ac5c][NMeGly(cPent)][d(β3hA)][NMeA]I[Sar][Aze][NMePhe(4-Me)][Sar][hPhe(3-Cl-4-CF3)]P)) | 100 to 500 | 0.79
CC[C@H](C)[C@@H]1NC(=O)[C@H](C)N(C)C(=O)C[C@@H](C)NC(=O)[C@H](C2CCCC2)N(C)C(=O)C2(CCC2)NC(=O)[C@@H]2CCCN2C(=O)[C@H](CCc2ccc(C(F)(F)F)c(Cl)c2)NC(=O)CN(C)C(=O)[C@H](Cc2ccc(C)cc2)N(C)C(=O)CN(C)C(=O)CN(C)C1=O [Compound 1466] (cyclo([Ac4c][NMeGly(cPent)][d(β3hA)][NMeA]I[Sar][Sar][NMePhe(4-Me)][Sar][hPhe(3-Cl-4-CF3)]P)) | 100 to 500 | 1
CC[C@H](C)[C@@H]1NC(=O)[C@H](CC(C)C)N(C)C(=O)C[C@@H](C)NC(=O)[C@H](C2CCCC2)N(C)C(=O)C2(CCC2)NC(=O)[C@@H]2CCCN2C(=O)[C@H](CCc2ccc(C(F)(F)F)c(Cl)c2)NC(=O)CN(C)C(=O)[C@H](Cc2ccc(C)cc2)N(C)C(=O)CN(C)C(=O)CN(C)C1=O [Compound 1498] (cyclo([Ac4c][NMeGly(cPent)][d(β3hA)][NMeL]I[Sar][Sar][NMePhe(4-Me)][Sar][hPhe(3-Cl-4-CF3)]P)) | 100 to 500 | 1.7
CC[C@H](C)[C@@H]1NC(=O)[C@H](CC(C)C)N(C)C(=O)C[C@@H](C)NC(=O)[C@H](C2CCCC2)N(C)C(=O)C2(CCCC2)NC(=O)[C@@H]2CCCN2C(=O)[C@H](CCc2ccc(C(F)(F)F)c(Cl)c2)NC(=O)CN(C)C(=O)[C@H](Cc2ccc(C)cc2)N(C)C(=O)[C@@H]2CCN2C(=O)CN(C)C1=O [Compound 1500] (cyclo([Ac5c][NMeGly(cPent)][d(β3hA)][NMeL]I[Sar][Aze][NMePhe(4-Me)][Sar][hPhe(3-Cl-4-CF3)]P)) | 100 to 500 | 3.9
CC[C@H](C)[C@@H]1NC(=O)[C@H](CC(C)C)N(C)C(=O)C[C@@H](C(=O)N2CCCCC2)N(C)C(=O)[C@H](CC(C)C)N(C)C(=O)C2(CCCC2)NC(=O)[C@@H]2CCCN2C(=O)[C@H](CCc2ccc(C(F)(F)F)c(F)c2)NC(=O)CN(C)C(=O)[C@H](CC2CCCCC2)N(C)C(=O)CN(C)C(=O)CN(C)C1=O [Compound 1501] ([NMeL]I[Sar][Sar][NMeCha][Sar][hPhe(3-F,4-CF3)]P[Ac5c][NMeL][NMeD]-Piperidide; lactam N-11) | 100 to 500 | 14
CC[C@H](C)[C@@H]1NC(=O)[C@H](CC(C)C)N(C)C(=O)C[C@@H](C)NC(=O)[C@H](C2CCCC2)N(C)C(=O)C2(CCC2)NC(=O)[C@@H]2CCCN2C(=O)[C@H](CCc2ccc(C(F)(F)F)c(Cl)c2)NC(=O)CN(C)C(=O)[C@H](Cc2ccc(C(F)(F)F)cc2)N(C)C(=O)CN(C)C(=O)CN(C)C1=O [Compound 1508] (cyclo([Ac4c][NMeGly(cPent)][d(β3hA)][NMeL]I[Sar][Sar][NMePhe(4-CF3)][Sar][hPhe(3-Cl-4-CF3)]P)) | 100 to 500 | 1.3
CC[C@H](C)[C@@H]1NC(=O)[C@H](C)N(C)C(=O)C[C@@H](C)NC(=O)[C@H](C2CCCC2)N(C)C(=O)C2(CCCC2)NC(=O)[C@@H]2CCCN2C(=O)[C@H](CCc2ccc(C(F)(F)F)c(Cl)c2)NC(=O)CN(C)C(=O)[C@H](Cc2ccc(C(F)(F)F)cc2)N(C)C(=O)CN(C)C(=O)CN(C)C1=O [Compound 1523] (cyclo([Ac5c][NMeGly(cPent)][d(β3hA)][NMeA]I[Sar][Sar][NMePhe(4-CF3)][Sar][hPhe(3-Cl-4-CF3)]P)) | 100 to 500 | 0.75
CC[C@H](C)[C@@H]1NC(=O)[C@H](CC(C)C)N(C)C(=O)C[C@@H](C)NC(=O)[C@H](C2CCCC2)N(C)C(=O)C2(CCCC2)NC(=O)[C@@H]2CCCN2C(=O)[C@H](CCc2ccc(C(F)(F)F)c(Cl)c2)NC(=O)CN(C)C(=O)[C@H](Cc2ccc(C(F)(F)F)cc2)N(C)C(=O)CN(C)C(=O)CN(C)C1=O [Compound 1524] (cyclo([Ac5c][NMeGly(cPent)][d(β3hA)][NMeL]I[Sar][Sar][NMePhe(4-CF3)][Sar][hPhe(3-Cl-4-CF3)]P)) | 50 to 100 | 1.9
CC[C@H](C)[C@@H]1NC(=O)[C@H](CC(C)C)N(C)C(=O)C[C@@H](C)NC(=O)[C@H](C2CCCC2)N(C)C(=O)C2(CCCC2)NC(=O)[C@@H]2CCCN2C(=O)[C@H](CCc2ccc(C(F)(F)F)c(Cl)c2)NC(=O)CN(C)C(=O)[C@H](Cc2ccc(C)cc2)N(C)C(=O)[C@@H]2CCN2C(=O)[C@H](C)N(C)C1=O [Compound 1537] (cyclo([Ac5c][NMeGly(cPent)][d(β3hA)][NMeL]I[NMeA][Aze][NMePhe(4-Me)][Sar][hPhe(3-Cl-4-CF3)]P)) | 50 to 100 | 3.9
CC[C@H](C)[C@@H]1NC(=O)[C@H](CC(C)C)N(C)C(=O)C[C@@H](C)NC(=O)[C@H](C2CCCC2)N(C)C(=O)C2(CCC2)NC(=O)[C@@H]2CCCN2C(=O)[C@H](CCc2ccc(C(F)(F)F)c(Cl)c2)NC(=O)CN(C)C(=O)[C@H](CC2CCCCC2)N(C)C(=O)CN(C)C(=O)CN(C)C1=O [Compound 1544] (cyclo([Ac4c][NMeGly(cPent)][d(β3hA)][NMeL]I[Sar][Sar][NMeCha][Sar][hPhe(3-Cl-4-CF3)]P)) | 100 to 500 | 5.6
